Source: article PMC8151276, “An Integrated Approach toward NanoBRET Tracers for Analysis of GPCR Ligand Engagement” (Molecules, 2021)

Molecular target: T1, ADRB3 (Homo sapiens, UniProt P13945)
T1 construct: purchased Promega (in-house HiBiT-GPCR construct library, NanoBRET)
Experiment: NanoBRET screen HiBiT-ADRB3 in HEK293
Type: binding
Protocol: Each tracer candidate was screened across the entire library of HiBiT-GPCR constructs using NanoBRET as the detection modality. As depicted in Figure 4A, the specificity of interactions was evaluated through decrease in BRET due to competitive displacement of a bound tracer by excess parental compound. Each tracer was analyzed for binding to each HiBiT-GPCR fusion in the absence and in the presence of competing parental compound. Briefly, HEK293 cells were transfected with HiBiT-GPCR constructs diluted into promoterless DNA to reduce expression and maximize translocation to the cell surface. Each tracer candidate was then screened at concentrations of 1 μM and 0.1 μM across cells expressing these fusions. Cells were treated for 1.5 h with tracer either alone or in the presence of 20 μM competing parental compound (i.e., control). BRET was measured upon addition of purified LgBiT and subsequent complementation with HiBiT genetically fused to a GPCR. The specificity of interactions was assessed through a decrease in BRET signal due to competitive displacement of the bound tracer. To further gauge the robustness of these interactions, the fold response over the control (i.e., BRETtracer/BRETcontrol) was calculated. We chose a 1.5-fold response, which translates to ≥7-fold signal over noise as the minimal threshold required to score an interaction as positive.
HiBiT-GPCR DNA constructs were diluted in 10 mM Tris pH 8 to a final concentration of 0.01 μg/μL, arrayed in 96-well plates and stored at −20 °C. For transfection, HEK293 cells were suspended in Opti-MEM (without phenol red) supplemented with 2% fetal bovine serum (Seradigm) and 100 units/mL penicillin–streptomycin (Gibco) at a final concentration of 220,000 cells/mL and dispensed into white 96-well plates at 90 μL/well. Subsequent transfections and screens were carried using an Agilent Bravo Automated Liquid Handling Platform. First, the 96-well HiBiT DNA arrays were diluted 25-fold in Opti-MEM (without serum or phenol red) to a final concentration of 0.0004 μg/μL and 20 μL of the diluted DNAs were transferred into new 96-well plates. Next, promoterless carrier DNA (1 μg/μL) was diluted 25-fold (0.04 μg/μL) and then dispensed into the diluted arrays at 20 μL/well. Following brief mixing, Viafect transfection reagent (Promega) diluted 16-fold into Opti-MEM was dispensed into the plates at 40 μL/well. After mixing by pipetting, plates were incubated for 10 min on the pipetting station deck. The DNA-transfection reagent complexes were then added to plates containing cells. To facilitate the screen, 10 μL of DNA-transfection reagent complexes were added in duplicates to the top 4 and bottom 4 rows, resulting in two identical 48-well arrays per plate. Plates with transfected cells were incubated for 18–20 h at 37 °C/5% CO2. A screen of each tracer across the entire library using two different concentrations requires duplicate plates of transfected cells. Depending on the number of tracers being screened, transfections can be scaled up using the same ratios. The next day, for each tracer, four 20× screening solutions in tracer dilution buffer (Promega) were prepared: two duplicates at final concentration of 20 μM and two duplicates at a final concentration of 2 μM. […] The four resulting solutions were diluted 4-fold in Opti-MEM without serum or phenol red to generate 5× solutions (5 µM and 0.5 µM tracer +/− 100 μM competing compound). To screen the library, a BioTek MultiFlo FX liquid dispenser was used to dispense 22.5 µL of tracer solution to the top 4 rows and 22.5 µL tracer + competing compound solution to the 4 bottom rows. Plates were briefly mixed on an orbital shaker and incubated for 1.5 h at room temperature. […] Plates were briefly mixed on an orbital shaker and incubated for 15 min to allow complementation.

T1 sequence (P13945 whole entry): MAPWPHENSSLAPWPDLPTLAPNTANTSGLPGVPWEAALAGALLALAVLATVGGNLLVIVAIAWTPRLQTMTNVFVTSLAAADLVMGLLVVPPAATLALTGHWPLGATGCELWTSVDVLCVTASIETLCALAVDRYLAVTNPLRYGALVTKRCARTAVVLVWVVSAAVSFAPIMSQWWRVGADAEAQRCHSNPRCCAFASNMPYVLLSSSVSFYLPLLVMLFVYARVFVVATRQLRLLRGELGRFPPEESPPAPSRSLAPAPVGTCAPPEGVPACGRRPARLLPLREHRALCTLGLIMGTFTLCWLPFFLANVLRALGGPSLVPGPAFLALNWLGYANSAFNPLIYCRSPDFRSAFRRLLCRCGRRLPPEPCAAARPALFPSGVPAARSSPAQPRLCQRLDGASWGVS

SMILES | NanoBRET Fold Response (ADRB3, tracer 0.1μM) | NanoBRET Fold Response (ADRB3, tracer 1μM) | other results
O=C(CCc1ccc2n1[B-](F)(F)[N+]1=C(c3ccc[nH]3)C=CC1=C2)NCc1ccc(C(=O)NCCOCCC(=O)N[C@@H]2CC[C@@]3(O)[C@H]4Cc5ccc(O)c6c5[C@@]3(CCN4CC3CC3)[C@H]2O6)cc1 [Naltrexone-3-NB590] | 0.99 | 1.02 | –
CCCn1c(=O)c2[nH]c(-c3ccc(OCC(=O)NCCNC(=O)CCOCCNC(=O)c4ccc(CNC(=O)CCc5ccc6n5[B-](F)(F)[N+]5=C(c7ccc[nH]7)C=CC5=C6)cc4)cc3)nc2n(CCC)c1=O [XAC-3-NB590] | 1.11 | 1.05 | –
CC(C)N(CC[C@H](c1ccccc1)c1cc(CCNC(=O)c2ccc(CNC(=O)CCc3ccc4n3[B-](F)(F)[N+]3=C(c5ccc[nH]5)C=CC3=C4)cc2)ccc1O)C(C)C [Tolterodine-BZ-NB590] | 0.93 | 0.99 | –
N#CN/C(=N\CCNC(=O)c1ccc(N)cc1)NCCCOc1cccc(CN2CCCCC2)c1 [Aminopotentidine (unmodified)] | – | – | NanoBRET Fold Response (ADRB3, other tracers/Aminopotentidine (unmodified), 0.1μM): 1.02; NanoBRET Fold Response (ADRB3, other tracers/Aminopotentidine (unmodified), 1μM): 1.10
COc1ccc2[nH]c(-c3ccc(CNC(=O)CCOCCOCCOCCOCCNC(=O)CCc4ccc5n4[B-](F)(F)[N+]4=C(c6ccc[nH]6)C=CC4=C5)cc3)c(CCNC(C)=O)c2n1 [AzomelatoninICO9-2-NB590] | – | – | NanoBRET Fold Response (0.1μM tracer): 1.00; NanoBRET Fold Response (1μM tracer): 1.11
CN1CCN(C2=Nc3cc(Cl)ccc3N(CC(=O)NCCOCCOCCOCCOCCNC(=O)CCc3ccc4n3[B-](F)(F)[N+]3=C(c5ccc[nH]5)C=CC3=C4)c3ccccc32)CC1 [Clozapine-c-2-NB590] | – | – | NanoBRET Fold Response (ADRB3, 0.1μM tracer): 0.98; NanoBRET Fold Response (ADRB3, 1μM tracer): 0.96
COc1ccccc1N1CCN(CCCCN2C(=O)c3ccc(CNC(=O)CCOCCNC(=O)c4ccc(CNC(=O)CCc5ccc6n5[B-](F)(F)[N+]5=C(c7ccc[nH]7)C=CC5=C6)cc4)cc3C2=O)CC1 [NAN-190-3-NB590] | 1.03 | 0.92 | –
Cc1nc2n(c(=O)c1CCN1CCC(c3noc4cc(F)ccc34)CC1)CCCC2OC(=O)NCCOCCOCCOCCOCCNC(=O)CCc1ccc2n1[B-](F)(F)[N+]1=C(c3ccc[nH]3)C=CC1=C2 (stereo not drawn) [Risperidone-2-NB590] | 0.98 | 1.01 | –
O=C(CCOCCOCCOCCOCCNC(=O)CCc1ccc2n1[B-](F)(F)[N+]1=C(c3ccc[nH]3)C=CC1=C2)NCCCN1CCN(C2=Nc3ccccc3Oc3ccc(Cl)cc32)CC1 [Loxapine-a-2-NB590] | 1.01 | 0.93 | –
COc1ccccc1N1CCN(CCCCN2C(=O)c3ccc(CNC(=O)CCOCCOCCOCCOCCNC(=O)CCc4ccc5n4[B-](F)(F)[N+]4=C(c6ccc[nH]6)C=CC4=C5)cc3C2=O)CC1 [NAN-190-2-NB590] | 0.98 | – | –
CC(C)N(CC[C@H](c1ccccc1)c1cc(CCNC(=O)CCOCCOCCOCCOCCNC(=O)CCc2ccc3n2[B-](F)(F)[N+]2=C(c4ccc[nH]4)C=CC2=C3)ccc1O)C(C)C [Tolterodine-2-NB590] | 0.97 | 0.97 | –
N#CN=C(NCCCOc1cccc(CN2CCCCC2)c1)NCCNC(=O)CCOCCOCCOCCOCCNC(=O)CCc1ccc2n1[B-](F)(F)[N+]1=C(c3ccc[nH]3)C=CC1=C2 [Aminopotentidine-2-NB590] | 1.00 | 1.01 | –
CCOC(=O)c1cc(C#N)c(N2CCC(C(=O)NS(=O)(=O)Cc3ccccc3/C=C/C(=O)NCCNC(=O)CCc3ccc4n3[B-](F)(F)[N+]3=C(c5ccc[nH]5)C=CC3=C4)CC2)nc1C [AZD1283-1-NB590] | – | – | NanoBRET Fold Response (ADRB3, 0.1μM): 1.09; NanoBRET Fold Response (ADRB3, 1μM): 1.04
CN(C)CCC=C1c2ccccc2CCc2ccc(C(=O)NCCNC(=O)CCOCCOCCOCCOCCNC(=O)CCc3ccc4n3[B-](F)(F)[N+]3=C(c5ccc[nH]5)C=CC3=C4)cc21 [Amitriptyline-b-2-NB590] | – | – | NanoBRET Fold Response (tracer at 0.1μM, listed as amitriptyline-b-2-NB590): 1.15; NanoBRET Fold Response (tracer at 1μM, listed as amitriptyline-b-2-NB590): 1.02
CN(C)CCC=C1c2ccccc2CCc2ccc(C(=O)NCCNC(=O)CCOCCOCCOCCOCCNC(=O)CCc3ccc4n3[B-](F)(F)[N+]3=C(c5ccc[nH]5)C=CC3=C4)cc21 [Amitriptyline-a-2-NB590] | – | – | NanoBRET Fold Response (tracer at 0.1μM): 0.95; NanoBRET Fold Response (tracer at 1μM): 0.99
O=C(CCc1ccc2n1[B-](F)(F)[N+]1=C(c3ccc[nH]3)C=CC1=C2)NCCOCCOCCNC(=O)OCCOCCN1CCN(C2=Nc3ccccc3Sc3ccccc32)CC1 [Quetiapine-a-2-NB590] | 1.08 | 0.99 | –
Cc1cc2c(s1)Nc1ccccc1N=C2N1CCN(CCCNC(=O)CCOCCOCCOCCOCCNC(=O)CCc2ccc3n2[B-](F)(F)[N+]2=C(c4ccc[nH]4)C=CC2=C3)CC1 [Olanzapine-a-2-NB590] | 1.05 | 0.89 | –
CN1CCN(C2=Nc3cc(Cl)ccc3Nc3ccc(CNC(=O)CCOCCOCCOCCOCCNC(=O)CCc4ccc5n4[B-](F)(F)[N+]4=C(c6ccc[nH]6)C=CC4=C5)cc32)CC1 [Clozapine-b-2-NB590] | – | – | NanoBRET Fold Response (ADRB3, 0.1μM tracer): 1.01; NanoBRET Fold Response (ADRB3, 1μM tracer): 0.98
COc1ccc2c(n1)c(CCNC(C)=O)cn2CCNC(=O)CCc1ccc2n1[B-](F)(F)[N+]1=C(c3ccc[nH]3)C=CC1=C2 [Azamelatonin-1-NB590] | – | – | NanoBRET Fold Response (0.1μM tracer): 1.01; NanoBRET Fold Response (1μM tracer): 1.06
CN(CCC=C1c2ccccc2CCc2ccccc21)C(=O)CCOCCOCCOCCOCCNC(=O)CCc1ccc2n1[B-](F)(F)[N+]1=C(c3ccc[nH]3)C=CC1=C2 [Amitriptyline-e-2-NB590] | – | – | NanoBRET Fold Response (tracer at 1μM): 1.01
O=C(CCc1ccc2n1[B-](F)(F)[N+]1=C(c3ccc[nH]3)C=CC1=C2)NCc1ccc(C(=O)NCCOCCOCCNCC(O)COc2cccc3ccccc23)cc1 (stereo not drawn) [Propranolol-3-NB590] | – | – | NanoBRET Fold Response (ADRB3, 0.1μM): 1.47; NanoBRET Fold Response (ADRB3, 1μM): 1.17
O=C(CCOCCOCCOCCOCCNC(=O)CCc1ccc2n1[B-](F)(F)[N+]1=C(c3ccc[nH]3)C=CC1=C2)NCCCN1CCN(C2=Nc3cc(Cl)ccc3Nc3ccccc32)CC1 [Clozapine-a-2-NB590] | – | – | NanoBRET Fold Response (ADRB3, 0.1μM tracer): 0.97; NanoBRET Fold Response (ADRB3, 1μM tracer): 0.99
